Literature values in patent US10597315B2, “Method of disinfection of drinking water using ozone and silver cations” (KAUNO TECHNOLOGIJOS UNIVERSITETAS, priority 2015, dated 2020).

Assays:
[1] = World Health Organization

For `[Ag+]` [silver], the “Ingested silver absorbed in the intestine” value is given as 10%, the “Ingested silver excreted from the body via the faeces” value is given as 90% and the “Silver in drinking water tolerable without any risk to health” value [1] is given as “up to 0.1 mg/kg”.
